Laboratory results from patent publication US20160067247A1, “NOVEL USE” (GlaxoSmithKline Intellectual Property (No.2) Limited, priority 2012, published 2016).
Like-named read-outs stand apart in the source and are kept apart here.

Tested on: primary human lung fibroblasts differentiated into myofibroblasts
Assay: Pro-collagen accumulation (hydroxyproline by HPLC) in supernatants of TGFβ differentiated myofibroblasts
Assay type: cell-based
Settings: for inhibition at 0.003 µM / inhibition at 0.03 µM: Homo sapiens, Fibroblast
Description: Cultured non-IPF cell lines (as described in section 3.1.2) were used to study pro-collagen accumulation in cell culture supernatants, following TGF6 induced myofibroblast differentiation.
Cells were seeded at 100,000 cells per well in 12-well plates (NUNC #150628) in 1 mL complete DMEM and incubated until they reached 100% confluence (4-5 days). Medium was removed from the confluent cells and replaced with 1 mL pre-incubation medium (DMEM containing 4 mM glutamine, 50 μg/mL ascorbic acid, 0.2 mM proline and 0.4% FBS) and incubated for a further 24 hours. Fresh pre-incubation medium was added to 3 wells and immediately collected for analysis in order to determine background level (T0) of hydroxyproline present in the culture medium at the start of the incubation period. […]
Following 24 hours serum starvation, fibroblasts were stimulated with TGFβ1 (1 ng/mL, 24 hours) (R&D #101-B1) to induce myofibroblast differentiation. Subsequently TGFβ1 was either removed or replenished (by complete serum free media change±TGFβ, 1 ng/ml) and 2,4-difluoro-N-{2-(methyloxy)-5-[4-(4-pyridazinyl)-6-quinolinyl]-3 pyridinyl}benzenesulfonamide (final concentration 3 nM or 30 nM, in 0.1% DMSO) added. Dilutions of 2,4-difluoro-N-{2-(methyloxy)-5-[4-(4-pyridazinyl)-6-quinolinyl]-3 pyridinyl}benzenesulfonamide were prepared from a stock of 0.03M by serial 10-fold dilution in 0.1% DMSO and a further 1000-fold dilution. Differentiated myofibroblast cultures were incubated for further 24 and 48 hours at 37° C., 100% humidity, 10% CO2. See FIG. 1 and FIG. 2 for schematic of the experimental regimen.
At the end of each incubation time point cell supernatant was collected and frozen at −80° C. The cell layer was detached by incubating with 250 μL of 0.25% trypsin-EDTA for 5 minutes and a 1 mL suspension was made in DMEM. Cell counts were performed on the cell suspension using Sceptre […] sensor.
The cell supernatants were allowed to thaw at room temperature and proteins were precipitated overnight in 67% (v/v) ethanol at 4° C.
Precipitated proteins were recovered by vacuum filtration onto Durapore polyvinylidene difluoride (PVDF) membrane filters (pore size 0.45 μm) (type HV, Millipore Ltd., UK; # HVLP02500) and the adhering protein was washed twice with 1.5 mL ethanol (67% v/v). Filters with adherent protein were transferred to Pyrex hydrolysis tubes containing 2 mL 6M HCl. Ethanol-insoluble fractions were then hydrolysed at 110° C. for 16 h and the samples were decolourised by mixing with approx. 70 mg of charcoal and filtered onto Durapore membrane filters (pore size 0.65 μm) (type DA, Millipore Ltd., UK; DVPP02500). Aliquots (100 μl) of decolourised hydrolysate were transferred to 1.5 mL centrifuge tubes and evaporated to dryness using speed vac concentrator (Savant SPD 131DDA, Thermo Electron Corporation, Cambridge, UK).
Hydroxyproline accumulation in cell culture supernatants is used as a measure of pro-collagen production. Hydroxyproline represents approximately 12% of the primary sequence of pro-collagen and is essential for the formation of the collagen triple helix. Hydroxproline is not present in significant levels in any other proteins. Levels of hydroxyproline in cell culture hydrolysates was quantified by reverse-phase high performance liquid chromatography (HPLC) following derivitisation with 7-chloro-4-nitrobenzo-oxa-1; 3-diazole (NBD-CI) (Sigma; #17239-0050).
Hydroxyproline Standard: Standard samples of Trans-4-hydroxy-L-proline (PHPRO) Sigma; #H5534) are stored frozen at −20° C. in 10 μL (250 μM) aliquots. A 10 μL aliquot was diluted in 990 μL Milli-Q water (Milli-Q Plus; Millipore Ltd., UK) and used as standard. The final amount of Hydroxyproline (Hyp) standard loaded onto the column was 50 pmoles.
Samples: Milli-Q water (100 μL) was added to the dried aliquot of hydrolysate and left to rehydrate at 4° C. overnight. […]

Compound: COc1ncc(-c2ccc3nccc(-c4ccnnc4)c3c2)cc1NS(=O)(=O)c1ccc(F)cc1F [2,4-difluoro-N-{2-(methyloxy)-5-[4-(4-pyridazinyl)-6-quinolinyl]-3-pyridinyl}benzenesulfonamide]
- inhibition at 0.003 µM (24 h, line 0110 (A), TGFβ removed, 3 nM, 24 hour, read-out: mean percent inhibition of TGFβ induced pro-collagen production): 31.6%
- inhibition at 0.03 µM (24 h, line 0110 (A), TGFβ removed, 30 nM, 24 hour, read-out: mean percent inhibition of TGFβ induced pro-collagen production): 60.8%
- inhibition at 0.003 µM (24 h, line 0610 (B), TGFβ removed, 3 nM, 24 hour, read-out: mean percent inhibition of TGFβ induced pro-collagen production): 26.2%
- inhibition at 0.03 µM (24 h, line 0610 (B), TGFβ removed, 30 nM, 24 hour, read-out: mean percent inhibition of TGFβ induced pro-collagen production): 56.8%
- inhibition at 0.003 µM (24 h, line 0610 (B), TGFβ replenished, 3 nM, 24 hour, read-out: mean percent inhibition of TGFβ induced pro-collagen production following replenishment of TGFβ): 29.1%
- inhibition at 0.03 µM (24 h, line 0610 (B), TGFβ replenished, 30 nM, 24 hour, read-out: mean percent inhibition of TGFβ induced pro-collagen production following replenishment of TGFβ): 45.4%
- inhibition at 0.003 µM (48 h, line 0110 (A), TGFβ removed, 3 nM, 48 hour, read-out: mean percent inhibition of TGFβ induced pro-collagen production): 48.1%
- inhibition at 0.03 µM (48 h, line 0110 (A), TGFβ removed, 30 nM, 48 hour, read-out: mean percent inhibition of TGFβ induced pro-collagen production): 64%
- inhibition at 0.003 µM (48 h, line 0110 (A), TGFβ replenished, 3 nM, 48 hour, read-out: mean percent inhibition of TGFβ induced pro-collagen production following replenishment of TGFβ): 6.3%
- inhibition at 0.03 µM (48 h, line 0110 (A), TGFβ replenished, 30 nM, 48 hour, read-out: mean percent inhibition of TGFβ induced pro-collagen production following replenishment of TGFβ): 35.2%
- inhibition at 0.003 µM (48 h, line 0610 (B), TGFβ removed, 3 nM, 48 hour, read-out: mean percent inhibition of TGFβ induced pro-collagen production): 35.6%
- inhibition at 0.03 µM (48 h, line 0610 (B), TGFβ removed, 30 nM, 48 hour, read-out: mean percent inhibition of TGFβ induced pro-collagen production): 59.6%
- inhibition at 0.03 µM (48 h, line 0610 (B), TGFβ replenished, 30 nM, 48 hour, read-out: mean percent inhibition of TGFβ induced pro-collagen production following replenishment of TGFβ): 37.7%
- mean percent inhibition of TGFβ induced pro-collagen production following replenishment of TGFβ (line 0110 (A), TGFβ replenished, 3 nM, 24 hour): No inhibition
- mean percent inhibition of TGFβ induced pro-collagen production following replenishment of TGFβ (line 0110 (A), TGFβ replenished, 30 nM, 24 hour): No inhibition
- mean percent inhibition of TGFβ induced pro-collagen production following replenishment of TGFβ (line 0610 (B), TGFβ replenished, 3 nM, 48 hour): No inhibition
